Measurements taken from patent EP4759807A1, “PROTEOLYSIS TARGETING CHIMERA COMPOUND FOR DEGRADING IRAK4 AND USE THEREOF” (Shenzhen Zhongge Biological Technology Co., Ltd., priority 2023, dated 2025).

Molecular target: T1, IRAK4 (Homo sapiens, UniProt Q9NWZ3)
T1 sequence (Q9NWZ3 1-460): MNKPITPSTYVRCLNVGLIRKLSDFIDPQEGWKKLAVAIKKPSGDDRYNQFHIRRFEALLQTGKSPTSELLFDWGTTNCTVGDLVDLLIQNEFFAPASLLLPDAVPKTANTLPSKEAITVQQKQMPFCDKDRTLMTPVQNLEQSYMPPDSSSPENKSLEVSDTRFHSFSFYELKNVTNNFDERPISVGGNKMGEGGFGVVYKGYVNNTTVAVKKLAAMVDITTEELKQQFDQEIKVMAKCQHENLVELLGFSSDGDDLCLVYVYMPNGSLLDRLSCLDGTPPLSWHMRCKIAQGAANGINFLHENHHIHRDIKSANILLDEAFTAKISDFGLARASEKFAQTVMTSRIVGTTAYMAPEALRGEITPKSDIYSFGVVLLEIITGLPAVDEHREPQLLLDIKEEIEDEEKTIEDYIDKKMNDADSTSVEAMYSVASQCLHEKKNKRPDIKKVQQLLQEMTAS
Test: Hibit fluorescence detection of proteolysis (IRAK4-HiBiT in HEK293T cells)
Type: cell-based
Design: host or cells: HEK293T (ATCC)
Settings: for Dmax: HEK-293T; for DC50: IRAK4-HiBiT, HEK293T cells, 24 h
Procedure: Utilizing HiBiT tag technology, the HiBiT tag-containing sequence (Seq. ID. No. 1, Beijing Tsingke Biotech Co., Ltd.) was connected to the IRAK4 plasmid (Seq. ID. No. 2, Beijing Tsingke Biotech Co., Ltd.), and the plasmid was transfected into HEK293T cells (ATCC). […] The 6-well plate that was incubated overnight was taken out. After the plate was left at room temperature for 15 min, the obtained mixture was added dropwise to the 6-well plate. […] Culture was performed at 37°C and 5% CO2 for 24 h. The 384-well plate was taken out and equilibrated to room temperature. 40 µL of Nano-Glo® HiBiT Lytic Detection System (Promega N3030) was added to each well and incubated at room temperature for 15 min. […] Prism 9.3 software was used to perform fitting analysis for data, and non-linear fitting (non-liner inhibitor (Bell-shaped)) and four parameters (4 parameter) were used, and the parameters was as follows: Span1 = Plateau1−Dip [formula] Span2 = Plateau2−Dip [formula] Section1 = Span1/(1+10^(∧)((LogEC50_1−X)*nH1)) [formula] Section2 = Span2/(1+10^(∧)((X−LogEC50_2)*nH2)) [formula]
The equation was as follows: Y=Dip+Section1+Section2. • Seq. ID. No. 1 ([…]), other DNA, synthetic construct, sequence length 33; • Seq. ID. No. 2 [formula]

SMILES: CN(CC1CCN(CCC#Cc2cccc3c2n(C)c(=O)n3C2CCC(=O)NC2=O)CC1)C[C@H]1CC[C@H](n2cc(-n3cc(-c4cnn5ccc(N6CCOCC6)nc45)nn3)c(C(F)F)n2)CC1 (stereo partly shown) [Example 25]
- Dmax: < 60%
- DC50: < 0.5 nM

SMILES: Cn1c(=O)n(C2CCC(=O)NC2=O)c2cccc(NCCC3CC4(C3)CN(C[C@H]3CC[C@H](n5cc(-n6cc(-c7cnn8ccc(N9CCOCC9)nc78)nn6)c(C(F)F)n5)CC3)C4)c21 (stereo partly shown) [Example 26, 3-(4-((2-(2-(((1r,4r)-4-(3-(difluoromethyl)-4-(4-(5-morpholinopyrazolo[1,5-a]pyrimidin-3-yl)-1H-1,2,3-triazol-1-yl)-1H-pyrazol-1-yl)cyclohexyl)methyl)-2-azaspiro[3.3]heptan-6-yl)ehtyl)amino)-3-methyl-2-oxo-2,3-dihydro-1H-benzo[d]imidazol-1-yl)piperidine-2,6-dione]
- Dmax: 70 to 80%
- DC50: < 0.5 nM

SMILES: Cn1c(=O)n(C2CCC(=O)NC2=O)c2cccc(C#CC3CN(C[C@H]4CC[C@H](n5cc(-n6cc(-c7cnn8ccc(N9CCOCC9)nc78)nn6)c(C(F)F)n5)CC4)C3)c21 (stereo partly shown) [Example 27]
- Dmax: 60 to 70%
- DC50: < 0.5 nM

SMILES: O=C1CCC(NC(=O)c2ccc(N3CCN(C[C@H]4CC[C@H](n5cc(-n6cc(-c7cnn8ccc(N9CCOCC9)nc78)nn6)c(C(F)F)n5)CC4)CC3)cc2F)C(=O)N1 (stereo partly shown) [Example 28]
- Dmax: 60 to 70%
- DC50: > 5 nM

SMILES: Cn1c(=O)n(C2CCC(=O)NC2=O)c2cccc(C(=O)N3CCC(NC[C@H]4CC[C@H](n5cc(-n6cc(-c7cnn8ccc(N9CCOCC9)nc78)nn6)c(C(F)F)n5)CC4)CC3)c21 (stereo partly shown) [Example 29]
- Dmax: 70 to 80%
- DC50: > 5 nM

SMILES: NC(=O)c1cnn2c(-c3cn(-c4cn([C@H]5CC[C@H](CN6CCN(c7ccc(C(=O)NC8CCC(=O)NC8=O)c(F)c7)CC6)CC5)nc4C(F)F)nn3)ccc2c1 (stereo partly shown) [Example 31]
- Dmax: 70 to 80%
- DC50: > 5 nM

SMILES: Cn1c(=O)n(C2CCC(=O)NC2=O)c2cccc(N3CCC4(CCN(C[C@H]5CC[C@H](n6cc(-n7cc(-c8cnn9ccc(N%10CCOCC%10)nc89)nn7)c(C(F)F)n6)CC5)C4)C3)c21 (stereo partly shown) [Example 32, 3-(4-((1r,4r)-4-(3-(difluoromethyl)-4-(4-(5-morpholinopyrazolo[[1,5-a]pyrimidin-3-yl)-1H-1,2,3-triazol-1-yl)-1H-pyrazol-1-yl)cyclohexylmethyl)-2,7-diazaspiro[4.4]non-2-yl)-3-methyl-2-oxo-2,3-dihydro-1H-benzo[d]imidazol-1-yl)piperidine-2,6-dione]
- Dmax: 70 to 80%
- DC50: < 0.5 nM

SMILES: Cn1c(=O)n(C2CCC(=O)NC2=O)c2cccc(N3CC4CN(C[C@H]5CC[C@H](n6cc(-n7cc(-c8cnn9ccc(N%10CCOCC%10)nc89)nn7)c(C(F)F)n6)CC5)CC4C3)c21 (stereo partly drawn) [Example 33, 3-(4-((1R,4R)-4-(3-(difluoromethyl)-4-(4-(5-morpholinopyrazolo[[1,5-a]pyrimidin-3-yl)-1H-1,2,3-triazol-1-yl)-1H-pyrazol-1-yl)cyclohexyl)methylhexahydropyrrolo[3,4-c]pyrrol-2(1H)-yl)-3-methyl-2-oxo-2,3-dihydro-1H-benzo[d]imidazol-1-yl)piperidine-2,6-dione]
- Dmax: 60 to 70%
- DC50: < 0.5 nM

SMILES: Cn1c(=O)n(C2CCC(=O)NC2=O)c2cccc(N3CCOC4(CCN(C[C@H]5CC[C@H](n6cc(-n7cc(-c8cnn9ccc(N%10CCOCC%10)nc89)nn7)c(C(F)F)n6)CC5)CC4)C3)c21 (stereo partly shown) [Example 38]
- Dmax: < 60%
- DC50: < 0.5 nM

SMILES: Cn1c(=O)n(C2CCC(=O)NC2=O)c2cccc(N3CCN(C4CCN(C[C@H]5CC[C@H](n6cc(-n7cc(-c8cnn9ccc(N%10CCOCC%10)nc89)nn7)c(C(F)F)n6)CC5)CC4)CC3)c21 (stereo partly shown) [Example 40]
- Dmax: > 80%
- DC50: < 0.5 nM

SMILES: Cn1c(=O)n(C2CCC(=O)NC2=O)c2cccc(N3CCC4(CC3)CN(C[C@H]3CC[C@H](n5cc(-n6cc(-c7cnn8ccc(N9CCOCC9)nc78)nn6)c(C(F)F)n5)CC3)CCO4)c21 (stereo partly shown) [Example 41]
- Dmax: 70 to 80%
- DC50: 1 to 5 nM

SMILES: Cn1c(=O)n(C2CCC(=O)NC2=O)c2cccc(N3CC(N4CCN(C[C@H]5CC[C@H](n6cc(-n7cc(-c8cnn9ccc(N%10CCOCC%10)nc89)nn7)c(C(F)F)n6)CC5)CC4)C3)c21 (stereo partly shown) [Example 42, 3-(4-(3-(4-(((1r,4r)-4-(3-(difluoromethyl)-4-(4-(5-morpholinopyrazolo[1,5-a]pyrimidin-3-yl)-1H-1,2,3-triazol-1-yl)-1H-pyrazol-1-yl)cyclohexyl)methyl)piperazin-1-yl)azetidin-1-yl)-3-methyl-2-oxo-2,3-dihydro-1H-benzo[d]imidazol-1-yl)piperidine-2,6-dione]
- Dmax: < 60%
- DC50: < 0.5 nM

SMILES: Cn1c(=O)n(C2CCC(=O)NC2=O)c2cccc(N3CC4(CCN(C[C@H]5CC[C@H](n6cc(-n7cc(-c8cnn9ccc(N%10CCOCC%10)nc89)nn7)c(C(F)F)n6)CC5)CC4)C3)c21 (stereo partly shown) [Example 43, 3-(4-(7-(((1r,4r)-4-(3-(difluoromethyl)-4-(4-(5-morpholinopyrazolo[1,5-a]pyrimidin-3-yl)-1H-1,2,3-triazol-1-yl)-1H-pyrazol-1-yl)cyclohexyl)methyl)-2,7-diazaspiro[3.5]nonan-2-yl)-3-methyl-2-oxo-2,3-dihydro-1H-benzo[d]imidazol-1-yl)piperidine-2,6-dione]
- Dmax: > 80%
- DC50: < 0.5 nM

SMILES: Cn1c(=O)n(C2CCC(=O)NC2=O)c2cccc(N3CCN(C4CN(C[C@H]5CC[C@H](n6cc(-n7cc(-c8cnn9ccc(N%10CCOCC%10)nc89)nn7)c(C(F)F)n6)CC5)C4)CC3)c21 (stereo partly shown) [Example 44]
- Dmax: > 80%
- DC50: < 0.5 nM

SMILES: Cn1c(=O)n(C2CCC(=O)NC2=O)c2cccc(N3CCC4(CCN(C[C@H]5CC[C@H](n6cc(-n7cc(-c8cnn9ccc(N%10CCOCC%10)nc89)nn7)c(C(F)F)n6)CC5)CC4)C3)c21 (stereo partly shown) [Example 45]
- Dmax: 70 to 80%
- DC50: < 0.5 nM

SMILES: C[C@@H]1CN(C[C@H]2CC[C@H](n3cc(-n4cc(-c5cnn6ccc(N7CCOCC7)nc56)nn4)c(C(F)F)n3)CC2)CCN1c1cccc2c1n(C)c(=O)n2C1CCC(=O)NC1=O (stereo partly drawn) [Example 46, 3-(4-((R)-4-(((1r,4R)-4-(3-(difluoromethyl)-4-(4-(5-morpholinopyrazolo[1,5-a]pyrimidin-3-yl)-1H-1,2,3-triazol-1-yl)-1H-pyrazol-1-yl)cyclohexyl)methyl)-2-methylpiperazin-1-yl)-3-methyl-2-oxo-2,3-dihydro-1H-benzo[d]imidazol-1-yl)piperidine-2,6-dione]
- Dmax: 70 to 80%
- DC50: < 0.5 nM

SMILES: Cn1c(=O)n(C2CCC(=O)NC2=O)c2cccc(N3CCC4(CC3)CN(C[C@H]3CC[C@H](n5cc(-n6cc(-c7cnn8ccc(N9CCOCC9)nc78)nn6)c(C(F)F)n5)CC3)C4)c21 (stereo partly shown) [Example 47]
- Dmax: 70 to 80%
- DC50: < 0.5 nM

SMILES: Cn1c(=O)n(C2CCC(=O)NC2=O)c2cccc(N3C4CCC3CN(C[C@H]3CC[C@H](n5cc(-n6cc(-c7cnn8ccc(N9CCOCC9)nc78)nn6)c(C(F)F)n5)CC3)C4)c21 (stereo partly shown) [Example 48, 3-(4-((1r,4r)-4-(3-(difluoromethyl)-4-(4-(5-morpholinopyrazolo[[1,5-a]pyrimidin-3-yl)-1H-1,2,3-triazol-1-yl)-1H-pyrazol-1-yl)cyclohexyl)-3,8-diazabicyclo[3.2.1]oct-8-yl)-3-methyl-2-oxo-2,3-dihydro-1H-benzo[d]imidazol-1-yl)piperidine-2,6-dione]
- Dmax: 60 to 70%
- DC50: > 5 nM

SMILES: Cn1c(=O)n(C2CCC(=O)NC2=O)c2cccc(N3CC4CCC(C3)N4C[C@H]3CC[C@H](n4cc(-n5cc(-c6cnn7ccc(N8CCOCC8)nc67)nn5)c(C(F)F)n4)CC3)c21 (stereo partly drawn) [Example 49, 3-(4-((1R,4R)-4-(3-(difluoromethyl)-4-(4-(5-morpholinopyrazolo[[1,5-a]pyrimidin-3-yl)-1H-1,2,3-triazol-1-yl)-1H-pyrazol-1-yl)cyclohexyl)-3,8-diazabicyclo[3.2.1]oct-3-yl)-3-methyl-2-oxo-2,3-dihydro-1H-benzo[d]imidazol-1-yl)piperidine-2,6-dione]
- Dmax: 70 to 80%
- DC50: 1 to 5 nM

SMILES: C[C@@H]1CN(c2cccc3c2n(C)c(=O)n3C2CCC(=O)NC2=O)CCN1C[C@H]1CC[C@H](n2cc(-n3cc(-c4cnn5ccc(N6CCOCC6)nc45)nn3)c(C(F)F)n2)CC1 (stereo partly shown) [Example 50]
- Dmax: 60 to 70%
- DC50: 0.5 to 1 nM
